According to ChEMBL document CHEMBL5352429, “Designed symmetrical β-hairpin peptides for treating multidrug-resistant salmonella typhimurium infections” (Eur J Med Chem, 2022):
≈ marks a conversion by molar mass, not a printed value. Calls of active or inactive are those of the source. The calls are words filed in the database; no cut-off is given here. Peptide text beside a SMILES is read from it.

Legend:
[1] = Antibacterial activity against Salmonella enterica subsp. enterica serovar Choleraesuis CICC 21493 incubated overnight by standard microtiter dilution method; type: functional
RAW264.7 [2] = assay: Inhibition of LPS-stimulated TNF-alpha production in mouse RAW264.7 cells at 1 to 128 ug/ml incubated for 24 hrs by ELISA analysis; type: functional, cell-based; conditions: dose 1-128 µg/ml
Enterococcus faecalis = assay: Antibacterial activity against Enterococcus faecalis ATCC 29212 incubated overnight by standard microtiter dilution method; type: functional
RAW264.7 [3] = assay: Inhibition of LPS-stimulated NO production in mouse RAW264.7 cells incubated for 24 hrs by Griess reagent based analysis; type: functional, cell-based; conditions: dose 1-128 µg/ml
[4] = Antibacterial activity against Salmonella blockley CICC 21489 incubated overnight by standard microtiter dilution method; type: functional, Salmonella enterica subsp. enterica serovar Blockley; conditions: Salmonella enterica
Salmonella typhimurium [5] = assay: Antibacterial activity against Salmonella typhimurium DT104 in the presence of FeCl3 by MH broth based assay; type: functional, Salmonella enterica subsp. enterica serovar Typhimurium; conditions: Salmonella enterica
Salmonella typhimurium [6] = assay: Antibacterial activity against Salmonella typhimurium CICC 21913 incubated overnight by standard microtiter dilution method; type: functional, Salmonella enterica subsp. enterica serovar Typhimurium; conditions: Salmonella enterica
Salmonella typhimurium [7] = assay: Antibacterial activity against Salmonella typhimurium DT104 in the presence of MgCl2 by MH broth based assay; type: functional, Salmonella enterica subsp. enterica serovar Typhimurium; conditions: Salmonella enterica
RAW264.7 [8] = assay: Inhibition of LPS-stimulated IL-1beta production in mouse RAW264.7 cells at 1 to 128 ug/ml incubated for 24 hrs by ELISA analysis; type: functional, cell-based; conditions: dose 1-128 µg/ml
[9] = Antibacterial activity against Salmonella enterica subsp. enterica serovar Choleraesuis ATCC 13312 incubated overnight by standard microtiter dilution method; type: functional
[10] = Antibacterial activity against Salmonella wandsworth CICC 21504 incubated overnight by standard microtiter dilution method; type: functional, Salmonella enterica subsp. enterica serovar Wandsworth; conditions: Salmonella enterica
[11] = Hemolytic activity in human Red blood cells assessed as hemolysis at 128 ug/ml incubated for 1 hrs by absorbance based microplate reader analysis relative to control; type: toxicity, cell-based, Erythrocyte; conditions: red blood cells (erythrocytes), at 128 µg/mL, read-out: Activity
Salmonella typhimurium [12] = assay: Antibacterial activity against Salmonella typhimurium DT104 in the presence 25% inactivated mouse serum by MH broth based assay; type: functional, Salmonella enterica subsp. enterica serovar Typhimurium; conditions: Salmonella enterica
Lipopolysaccharide (LPS) = assay: Displacement of BODIPY-TR-cadaverine from Salmonella typhimurium LPS assessed as increase in fluorescence intensity by fluorescence spectrophotometric analysis; conditions: Salmonella enterica subsp. enterica serovar Typhimurium; dose 0.25-8 µg/ml
Candida albicans = assay: Antifungal activity against Candida albicans ATCC 10231 incubated overnight by standard microtiter dilution method; type: functional
Erythrocyte = assay: Hemolytic activity in human Red blood cells assessed as hemolysis incubated for 1 hrs by absorbance based microplate reader analysis; type: toxicity, cell-based
Salmonella paratyphi = assay: Antibacterial activity against Salmonella paratyphi A CICC 21501 incubated overnight by standard microtiter dilution method; type: functional, Salmonella enterica subsp. enterica serovar Paratyphi A; conditions: Salmonella enterica
Salmonella typhimurium [13] = assay: Antibacterial activity against Salmonella typhimurium DT104 in the presence of NH4Cl by MH broth based assay; type: functional, Salmonella enterica subsp. enterica serovar Typhimurium; conditions: Salmonella enterica
[14] = Antibacterial activity against Salmonella dublin CICC 21497 incubated overnight by standard microtiter dilution method; type: functional, Salmonella enterica subsp. enterica serovar Dublin; conditions: Salmonella enterica
Staphylococcus aureus [15] = assay: Antibacterial activity against methicillin-resistant Staphylococcus aureus ATCC 43300 incubated overnight by standard microtiter dilution method; type: functional
[16] = test system: Salmonella enterica subsp. enterica serovar Paratyphi B; assay: Antibacterial activity against Salmonella paratyphi B CICC 21495 incubated overnight by standard microtiter dilution method; type: functional
Salmonella typhimurium [17] = assay: Antibacterial activity against Salmonella typhimurium DT104 in the presence of CaCl2 by MH broth based assay; type: functional, Salmonella enterica subsp. enterica serovar Typhimurium; conditions: Salmonella enterica
Salmonella typhimurium [18] = assay: Antibacterial activity against Salmonella typhimurium DT104 in the presence of NaCl by MH broth based assay; type: functional, Salmonella enterica subsp. enterica serovar Typhimurium; conditions: Salmonella enterica
Salmonella typhimurium [19] = assay: Antibacterial activity against Salmonella typhimurium DT104 in the presence of KCl by MH broth based assay; type: functional, Salmonella enterica subsp. enterica serovar Typhimurium; conditions: Salmonella enterica
Salmonella enteritidis = assay: Antibacterial activity against Salmonella enteritidis CICC 21527 incubated overnight by standard microtiter dilution method; type: functional, Salmonella enterica subsp. enterica serovar Enteritidis; conditions: Salmonella enterica
Salmonella typhimurium [20] = assay: Antibacterial activity against Salmonella typhimurium DT104 in the presence 50% inactivated mouse serum by MH broth based assay; type: functional, Salmonella enterica subsp. enterica serovar Typhimurium; conditions: Salmonella enterica
[21] = Antibacterial activity against Salmonella paratyphi C CICC 21512 incubated overnight by standard microtiter dilution method; type: functional, Salmonella enterica subsp. enterica serovar Paratyphi C; conditions: Salmonella enterica
Salmonella typhimurium [22] = assay: Antibacterial activity against Salmonella typhimurium DT104 ATCC 700408 incubated overnight by standard microtiter dilution method; type: functional, Salmonella enterica subsp. enterica serovar Typhimurium; conditions: Salmonella enterica
RAW264.7 [23] = assay: Inhibition of LPS-stimulated IL-8 production in mouse RAW264.7 cells at 1 to 128 ug/ml incubated for 24 hrs by ELISA analysis; type: functional, cell-based; conditions: dose 1-128 µg/ml
Staphylococcus aureus [24] = assay: Antibacterial activity against Staphylococcus aureus ATCC 29213 incubated overnight by standard microtiter dilution method; type: functional
Escherichia coli = assay: Antibacterial activity against Escherichia coli O157:H7 CICC 21530 incubated overnight by standard microtiter dilution method; type: functional
Salmonella typhimurium [25] = assay: Antibacterial activity against Salmonella typhimurium CICC 21483 incubated overnight by standard microtiter dilution method; type: functional, Salmonella enterica subsp. enterica serovar Typhimurium; conditions: Salmonella enterica
[26] = test system: Staphylococcus epidermidis; assay: Antibacterial activity against methicillin-resistant Staphylococcus epidermidis ATCC 12228 incubated overnight by standard microtiter dilution method; type: functional
Cell membrane = assay: Disruption of membrane integrity in Salmonella typhimurium DT104 assessed as increase in fluorescence intensity at 0.5 to 2 times of MIC incubated for 15 mins by PI staining based flow cytometric analysis; type: subcellular; conditions: Salmonella enterica subsp. enterica serovar Typhimurium

Compound | MIC [1] | inhibition (RAW264.7 [2]) | MIC (Enterococcus faecalis) | inhibition (RAW264.7 [3]) | MIC [4] | MIC (Salmonella typhimurium [5]) | MIC (Salmonella typhimurium [6]) | MIC (Salmonella typhimurium [7]) | inhibition (RAW264.7 [8]) | MIC [9] | MIC [10] | hemolysis at 1 h, 128 ug/ml [11] | MIC (Salmonella typhimurium [12]) | Activity (Lipopolysaccharide (LPS)) | MIC (Candida albicans) | MHC (Erythrocyte) | MIC (Salmonella paratyphi) | MIC (Salmonella typhimurium [13]) | MIC [14] | MIC (Staphylococcus aureus [15]) | also measured
CC(C)[C@H](N)C(=O)N[C@@H](CCCCN)C(=O)N[C@@H](CS)C(=O)N[C@H](C(=O)N[C@@H](CCCCN)C(=O)N[C@@H](CO)C(=O)NCC(=O)N[C@@H](CS)C(=O)N[C@@H](CCCCN)C(=O)N[C@H](C(N)=O)C(C)C)[C@@H](C)O (H-VKCTKSGCKV-NH2) | > 128 µg/mL | Active | 32 µg/mL (≈ 30.4 µM) | Dose-Dependent Effect | > 128 µg/mL | > 128 µg/mL | > 128 µg/mL | > 128 µg/mL | Active | > 128 µg/mL | > 128 µg/mL | < 10% | > 128 µg/mL | Dose-Dependent Effect | > 128 µg/mL | > 128 µg/mL | > 128 µg/mL | > 128 µg/mL | > 128 µg/mL | > 128 µg/mL | MIC [16]: > 128 µg/mL; MIC (Salmonella typhimurium [17]): > 128 µg/mL; MIC (Salmonella typhimurium [18]): > 128 µg/mL; MIC (Salmonella typhimurium [19]): > 128 µg/mL; MIC (Salmonella enteritidis): > 128 µg/mL; MIC (Salmonella typhimurium [20]): > 128 µg/mL; MIC [21]: > 128 µg/mL; MIC (Salmonella typhimurium [22]): > 128 µg/mL; inhibition (RAW264.7 [23]): Active; MIC (Staphylococcus aureus [24]): > 128 µg/mL; MIC (Escherichia coli): > 128 µg/mL; MIC (Salmonella typhimurium [25]): > 128 µg/mL; MIC [26]: > 128 µg/mL
CC(C)[C@H](N)C(=O)N[C@@H](CCCCN)C(=O)N[C@H](C(=O)N[C@@H](CCCCN)C(=O)N[C@@H](CS)C(=O)N[C@H](C(=O)N[C@@H](CCCCN)C(=O)N[C@@H](CO)C(=O)NCC(=O)N[C@@H](CS)C(=O)N[C@@H](CCCCN)C(=O)N[C@H](C(=O)N[C@@H](CCCCN)C(=O)N[C@H](C(N)=O)C(C)C)C(C)C)[C@@H](C)O)C(C)C (H-VKVKCTKSGCKVKV-NH2) | > 128 µg/mL | Active | > 128 µg/mL | Dose-Dependent Effect | > 128 µg/mL | > 128 µg/mL | > 128 µg/mL | > 128 µg/mL | Active | 4 µg/mL (≈ 2.66 µM) | > 128 µg/mL | < 10% | > 128 µg/mL | Dose-Dependent Effect | 16 µg/mL (≈ 10.6 µM) | > 128 µg/mL | > 128 µg/mL | > 128 µg/mL | > 128 µg/mL | > 128 µg/mL | Activity (Cell membrane): Active; MIC [16]: 16 µg/mL (≈ 10.6 µM); MIC (Salmonella typhimurium [17]): > 128 µg/mL; MIC (Salmonella typhimurium [18]): > 128 µg/mL; MIC (Salmonella typhimurium [19]): > 128 µg/mL; MIC (Salmonella enteritidis): > 128 µg/mL; MIC (Salmonella typhimurium [20]): > 128 µg/mL; MIC [21]: 64 µg/mL (≈ 42.5 µM); MIC (Salmonella typhimurium [22]): > 128 µg/mL; inhibition (RAW264.7 [23]): Active; MIC (Staphylococcus aureus [24]): > 128 µg/mL; MIC (Escherichia coli): 64 µg/mL (≈ 42.5 µM); MIC (Salmonella typhimurium [25]): > 128 µg/mL; MIC [26]: > 128 µg/mL
C[C@@H](O)[C@H](NC(=O)[C@H](CS)NC(=O)[C@H](CCCCN)NC(=O)[C@@H](N)Cc1c[nH]c2ccccc12)C(=O)N[C@@H](CCCCN)C(=O)N[C@@H](CO)C(=O)NCC(=O)N[C@@H](CS)C(=O)N[C@@H](CCCCN)C(=O)N[C@@H](Cc1c[nH]c2ccccc12)C(N)=O (H-WKCTKSGCKW-NH2) | > 128 µg/mL | Active | 128 µg/mL (≈ 104 µM) | Dose-Dependent Effect | > 128 µg/mL | > 128 µg/mL | > 128 µg/mL | > 128 µg/mL | Active | 8 µg/mL (≈ 6.53 µM) | 64 µg/mL (≈ 52.2 µM) | < 10% | > 128 µg/mL | Dose-Dependent Effect | 64 µg/mL (≈ 52.2 µM) | > 128 µg/mL | 128 µg/mL (≈ 104 µM) | > 128 µg/mL | > 128 µg/mL | > 128 µg/mL | MIC [16]: 16 µg/mL (≈ 13.1 µM); MIC (Salmonella typhimurium [17]): > 128 µg/mL; MIC (Salmonella typhimurium [18]): > 128 µg/mL; MIC (Salmonella typhimurium [19]): > 128 µg/mL; MIC (Salmonella enteritidis): > 128 µg/mL; MIC (Salmonella typhimurium [20]): > 128 µg/mL; MIC [21]: 64 µg/mL (≈ 52.2 µM); MIC (Salmonella typhimurium [22]): > 128 µg/mL; inhibition (RAW264.7 [23]): Active; MIC (Staphylococcus aureus [24]): > 128 µg/mL; MIC (Escherichia coli): 64 µg/mL (≈ 52.2 µM); MIC (Salmonella typhimurium [25]): > 128 µg/mL; MIC [26]: 128 µg/mL (≈ 104 µM)
[H]/N=C(/N)N[C@H]1[C@H](O)[C@@H](O)[C@H](O[C@@H]2O[C@@H](C)[C@](O)(C=O)[C@H]2O[C@@H]2O[C@@H](CO)[C@H](O)[C@@H](O)[C@@H]2NC)[C@@H](N/C(N)=N\[H])[C@@H]1O [STREPTOMYCIN] |  |  |  |  |  |  |  |  |  |  |  |  |  |  |  | > 128 µg/mL |  |  |  |  | 
